{
  "source": "ChEMBL document CHEMBL3832032",
  "about": "“DailyMed|setid=2238e083-08f2-0aa8-59b7-16b6d68dbd48 | ALPRAZOLAM - alprazolam tablet|Apotex Corp”",
  "type_in_all_cases": "ADME, organism-based",
  "key": {"Homo sapiens [1]": {"system": "Homo sapiens", "assay": "Evaluation of pharmacokinetic parameters for Alprazolam following single oral administration of Alprazolam, and following co-administration with multiple doses of carbamazepine.", "conditions": "in vivo, dose 0.8 mg, dosed compound id 23, dosed compound name ALPRAZOLAM, regimen Single dose, tissue Plasma"}, "[2]": {"assay": "(§1) Pharmacokinetic parameters for Alprazolam evaluated after oral administration of alprazolam to subjects of different ages and health conditions.", "design": "route oral, dose Range 0.5 to 3", "conditions": "human, in vivo, dosed compound id 23, dosed compound name ALPRAZOLAM, gender male and female, tissue Plasma"}, "Homo sapiens [3]": {"system": "Homo sapiens", "assay": "as §1", "design": "route oral, dose Range 0.5 to 3", "conditions": "in vivo, po, dosed compound id 23, dosed compound name ALPRAZOLAM, gender male and female, tissue Plasma"}, "[4]": {"conditions": "interact cpd dose 300 mg, inter cpd dos duration 10 days"}},
  "data": [
    {"smiles": "Cc1nnc2n1-c1ccc(Cl)cc1C(c1ccccc1)=NC2", "note": "[ALPRAZOLAM]", "values": [
      {"measurement": "CL", "setting": "Homo sapiens [1]; [4]", "value": 2.13, "unit": "mL/min/kg"},
      {"measurement": "t1/2", "setting": "Homo sapiens [1]; [4]", "value": 7.7, "unit": "h"},
      {"measurement": "CL", "setting": "Homo sapiens [1]", "value": 0.9, "unit": "mL/min/kg"},
      {"measurement": "t1/2", "setting": "Homo sapiens [1]", "value": 17.1, "unit": "h"},
      {"measurement": "Cmax", "setting": "[2]; po", "value": "8 to 37", "unit": "ng/mL"},
      {"measurement": "Tmax", "setting": "[2]; dose Range 0.5 to 3 mg, route oral", "value": "1 to 2", "unit": "h"},
      {"measurement": "t1/2", "setting": "Homo sapiens [3]; dose Range 0.5 to 3 mg", "value": 11.2, "unit": "h"},
      {"measurement": "t1/2", "setting": "Homo sapiens [3]", "value": "16.3 hr [middle of 5 runs]"}
    ]}
  ]
}
